Source: patent publication US20160039871A1, “NOVEL FORMS OF TELAPREVIR” (SANDOZ AG, priority 2012, published 2016)

Assay: moisture sorption (Dynamic Vapor Sorption), water content versus relative humidity
Assay type: physicochemical
Protocol: The moisture sorption isotherms were recorded with a SPS-11 moisture sorption analyzer (MD Messtechnik, Ulm, D). […] The equilibrium condition for each step was set to a mass constancy of ±0.005% over 60 min. The temperature was 25±0.1° C.

- water content (relative humidity of about 40%): about 0.5 moles of water
- water content (relative humidity of about 70%-80%): about 0.9 moles of water
Structure (SMILES): CCC[C@H](NC(=O)[C@@H]1[C@H]2CCC[C@H]2CN1C(=O)[C@@H](NC(=O)[C@@H](NC(=O)c1cnccn1)C1CCCCC1)C(C)(C)C)C(=O)C(=O)NC1CC1 [Form C, (1S,3aR,6aS)-2-[(2S)-2-[[(2S)-2-Cyclohexyl-2-(pyrazine-2-carbonylamino)acetyl]amino]-3,3-dimethylbutanoyl]-N-[(3S)-1-(cyclopropylamino)-1,2-dioxohexan-3-yl]-3,3a,4,5,6,6a-hexahydro-1H-cyclopenta[c]pyrrole-1-carboxamide]
